Data: ChEMBL document CHEMBL1201862, “PubChem BioAssay data set” (2004)
Activity calls are given as the source filed them.

What was measured:
Fatty acid synthase [1] = molecular target: T1, Fatty acid synthase (Homo sapiens, UniProt P49327); test: FAS thioesterase domain inhibitors, dose response, biochemical, endpoint fluorescence intensity, uHTS hits (AID 624327); assay type: functional;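 note: fluorescence from hydrolysis of an O-methyl fluorescein acyl ester substrate by the enzyme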
Fatty acid synthase [2] = molecular target: T1, Fatty acid synthase; test: FAS thioesterase domain inhibitors, dose response, biochemical, kinetic fluorescence intensity (AID 624326); assay type: functional;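 note: rate of fluorescence rise from hydrolysis of a fluorogenic O-methyl fluorescein ester substrate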
Cytochrome P450 3A4 = Cytochrome P450 3A4 (Homo sapiens, UniProt P08684); conditions: Potency;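 note: confirmatory qHTS run detecting inhibitors and substrates of CYP3A4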
[3] = NIH-3T3 fibroblast cytotoxicity, dose response, cytotoxicity control, cell-based, fluorescence, Alamar Blue, secondary assay (AID 2327); assay type: functional;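 note: NIH-3T3 mouse fibroblasts cultured with fluconazole at 8 µg/mL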
[4] = C. albicans growth with fluconazole, confirmation, fluorescence, retest (AID 2467); assay type: functional, cell-based
H9c2 = test: cells; assay type: functional, cell-based; conditions: Rattus norvegicus, H9c2, Myocardium
[5] = HEp-2 cell cytotoxicity, dose response, cytotoxicity control for RSV inhibitor project, HTS (AID 2410); assay type: functional; conditions: human respiratory syncytial virus
Protein RecA = molecular target: T2, Protein RecA (Mycobacterium tuberculosis, UniProt P9WHJ3); test: Fluorescence Cell-Free Homogeneous Dose Retest to Identify Inhibitors of RecA-Intein Splicing Activity. [Related pubchem assays (depositor defined):AID2097, AID2223, AID489010, AID492950]; assay type: functional
T2 sequence (P9WHJ3 whole entry): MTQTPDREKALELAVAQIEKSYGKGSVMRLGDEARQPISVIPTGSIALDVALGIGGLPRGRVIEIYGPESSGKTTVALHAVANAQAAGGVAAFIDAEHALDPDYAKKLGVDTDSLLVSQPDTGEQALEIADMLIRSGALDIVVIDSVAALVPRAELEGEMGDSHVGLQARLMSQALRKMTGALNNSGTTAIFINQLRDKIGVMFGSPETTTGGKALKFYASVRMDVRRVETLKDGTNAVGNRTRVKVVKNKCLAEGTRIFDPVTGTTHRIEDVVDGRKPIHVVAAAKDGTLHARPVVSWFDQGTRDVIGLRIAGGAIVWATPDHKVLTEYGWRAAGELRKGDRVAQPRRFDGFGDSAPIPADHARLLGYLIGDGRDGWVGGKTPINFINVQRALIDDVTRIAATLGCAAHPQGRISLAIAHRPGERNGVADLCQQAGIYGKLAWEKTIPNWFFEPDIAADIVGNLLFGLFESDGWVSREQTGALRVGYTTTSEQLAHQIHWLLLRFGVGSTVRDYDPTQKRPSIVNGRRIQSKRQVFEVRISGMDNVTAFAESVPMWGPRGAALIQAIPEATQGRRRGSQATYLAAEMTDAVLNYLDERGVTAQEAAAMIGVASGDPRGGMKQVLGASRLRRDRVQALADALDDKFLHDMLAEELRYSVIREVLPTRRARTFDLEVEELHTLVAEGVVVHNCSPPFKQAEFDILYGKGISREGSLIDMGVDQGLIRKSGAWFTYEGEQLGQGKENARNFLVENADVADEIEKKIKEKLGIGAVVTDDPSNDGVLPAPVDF

[6] = Luminescence Cell-Based Dose Retest to Confirm Inhibitors of Cancer Stem Cells. [Related pubchem assays (depositor defined):AID2717, AID2721]; assay type: functional; conditions: Homo sapiens
[7] = molecular target: T3, Replicative DNA helicase DnaB (Mycobacterium tuberculosis, UniProt P9WMR3); test: DnaB intein splicing inhibitors, dose response, biochemical, cell-free fluorescence (AID 449749); assay type: functional
T3 sequence (P9WMR3 whole entry): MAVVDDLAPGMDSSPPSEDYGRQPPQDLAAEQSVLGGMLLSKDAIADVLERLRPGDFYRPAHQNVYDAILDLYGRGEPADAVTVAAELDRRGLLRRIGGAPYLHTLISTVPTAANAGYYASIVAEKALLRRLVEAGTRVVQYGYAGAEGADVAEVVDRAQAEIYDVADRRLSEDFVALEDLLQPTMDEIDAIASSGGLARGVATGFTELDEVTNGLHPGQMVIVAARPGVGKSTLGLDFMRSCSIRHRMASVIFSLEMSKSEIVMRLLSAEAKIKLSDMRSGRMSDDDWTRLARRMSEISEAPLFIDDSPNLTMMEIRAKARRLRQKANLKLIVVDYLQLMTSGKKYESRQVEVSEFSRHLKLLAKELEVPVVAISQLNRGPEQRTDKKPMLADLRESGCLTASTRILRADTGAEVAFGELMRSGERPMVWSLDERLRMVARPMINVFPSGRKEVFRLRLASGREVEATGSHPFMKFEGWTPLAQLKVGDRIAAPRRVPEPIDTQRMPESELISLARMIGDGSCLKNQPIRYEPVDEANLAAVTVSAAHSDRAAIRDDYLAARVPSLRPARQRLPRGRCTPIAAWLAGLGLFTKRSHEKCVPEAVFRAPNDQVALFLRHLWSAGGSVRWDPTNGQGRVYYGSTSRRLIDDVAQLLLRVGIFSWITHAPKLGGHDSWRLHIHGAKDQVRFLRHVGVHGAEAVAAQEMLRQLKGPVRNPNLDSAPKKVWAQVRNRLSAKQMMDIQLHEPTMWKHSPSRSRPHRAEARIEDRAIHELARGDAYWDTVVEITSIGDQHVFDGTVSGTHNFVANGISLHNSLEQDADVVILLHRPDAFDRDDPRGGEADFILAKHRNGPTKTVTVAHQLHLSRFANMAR

[8] = molecular target: T4, Rac GTPase-activating protein 1 (Homo sapiens, UniProt Q9H0H5); test: MgcRacGAP GTPase-activating activity inhibitors, confirmation, biochemical, ADP Hunter fluorescence, primary and confirmatory (AID 624330); assay type: functional
T4 sequence (Q9H0H5 whole entry): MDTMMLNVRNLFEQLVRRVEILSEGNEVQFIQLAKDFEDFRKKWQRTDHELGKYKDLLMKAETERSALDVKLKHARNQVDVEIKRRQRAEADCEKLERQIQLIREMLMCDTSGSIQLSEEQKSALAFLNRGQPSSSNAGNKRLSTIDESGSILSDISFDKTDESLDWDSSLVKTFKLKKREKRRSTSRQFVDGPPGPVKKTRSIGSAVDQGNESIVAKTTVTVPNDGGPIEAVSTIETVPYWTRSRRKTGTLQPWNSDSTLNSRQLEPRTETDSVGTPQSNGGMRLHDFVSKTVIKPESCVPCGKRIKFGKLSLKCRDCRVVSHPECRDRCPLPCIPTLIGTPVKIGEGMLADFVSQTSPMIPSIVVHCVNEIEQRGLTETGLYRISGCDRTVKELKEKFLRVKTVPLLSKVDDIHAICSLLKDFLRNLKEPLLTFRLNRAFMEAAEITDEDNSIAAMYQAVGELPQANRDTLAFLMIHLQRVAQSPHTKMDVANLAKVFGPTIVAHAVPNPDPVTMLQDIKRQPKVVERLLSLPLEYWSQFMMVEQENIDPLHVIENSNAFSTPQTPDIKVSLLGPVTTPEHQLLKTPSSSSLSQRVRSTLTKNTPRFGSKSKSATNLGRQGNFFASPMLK

T1 sequence (P49327 whole entry, the tested form may be a part): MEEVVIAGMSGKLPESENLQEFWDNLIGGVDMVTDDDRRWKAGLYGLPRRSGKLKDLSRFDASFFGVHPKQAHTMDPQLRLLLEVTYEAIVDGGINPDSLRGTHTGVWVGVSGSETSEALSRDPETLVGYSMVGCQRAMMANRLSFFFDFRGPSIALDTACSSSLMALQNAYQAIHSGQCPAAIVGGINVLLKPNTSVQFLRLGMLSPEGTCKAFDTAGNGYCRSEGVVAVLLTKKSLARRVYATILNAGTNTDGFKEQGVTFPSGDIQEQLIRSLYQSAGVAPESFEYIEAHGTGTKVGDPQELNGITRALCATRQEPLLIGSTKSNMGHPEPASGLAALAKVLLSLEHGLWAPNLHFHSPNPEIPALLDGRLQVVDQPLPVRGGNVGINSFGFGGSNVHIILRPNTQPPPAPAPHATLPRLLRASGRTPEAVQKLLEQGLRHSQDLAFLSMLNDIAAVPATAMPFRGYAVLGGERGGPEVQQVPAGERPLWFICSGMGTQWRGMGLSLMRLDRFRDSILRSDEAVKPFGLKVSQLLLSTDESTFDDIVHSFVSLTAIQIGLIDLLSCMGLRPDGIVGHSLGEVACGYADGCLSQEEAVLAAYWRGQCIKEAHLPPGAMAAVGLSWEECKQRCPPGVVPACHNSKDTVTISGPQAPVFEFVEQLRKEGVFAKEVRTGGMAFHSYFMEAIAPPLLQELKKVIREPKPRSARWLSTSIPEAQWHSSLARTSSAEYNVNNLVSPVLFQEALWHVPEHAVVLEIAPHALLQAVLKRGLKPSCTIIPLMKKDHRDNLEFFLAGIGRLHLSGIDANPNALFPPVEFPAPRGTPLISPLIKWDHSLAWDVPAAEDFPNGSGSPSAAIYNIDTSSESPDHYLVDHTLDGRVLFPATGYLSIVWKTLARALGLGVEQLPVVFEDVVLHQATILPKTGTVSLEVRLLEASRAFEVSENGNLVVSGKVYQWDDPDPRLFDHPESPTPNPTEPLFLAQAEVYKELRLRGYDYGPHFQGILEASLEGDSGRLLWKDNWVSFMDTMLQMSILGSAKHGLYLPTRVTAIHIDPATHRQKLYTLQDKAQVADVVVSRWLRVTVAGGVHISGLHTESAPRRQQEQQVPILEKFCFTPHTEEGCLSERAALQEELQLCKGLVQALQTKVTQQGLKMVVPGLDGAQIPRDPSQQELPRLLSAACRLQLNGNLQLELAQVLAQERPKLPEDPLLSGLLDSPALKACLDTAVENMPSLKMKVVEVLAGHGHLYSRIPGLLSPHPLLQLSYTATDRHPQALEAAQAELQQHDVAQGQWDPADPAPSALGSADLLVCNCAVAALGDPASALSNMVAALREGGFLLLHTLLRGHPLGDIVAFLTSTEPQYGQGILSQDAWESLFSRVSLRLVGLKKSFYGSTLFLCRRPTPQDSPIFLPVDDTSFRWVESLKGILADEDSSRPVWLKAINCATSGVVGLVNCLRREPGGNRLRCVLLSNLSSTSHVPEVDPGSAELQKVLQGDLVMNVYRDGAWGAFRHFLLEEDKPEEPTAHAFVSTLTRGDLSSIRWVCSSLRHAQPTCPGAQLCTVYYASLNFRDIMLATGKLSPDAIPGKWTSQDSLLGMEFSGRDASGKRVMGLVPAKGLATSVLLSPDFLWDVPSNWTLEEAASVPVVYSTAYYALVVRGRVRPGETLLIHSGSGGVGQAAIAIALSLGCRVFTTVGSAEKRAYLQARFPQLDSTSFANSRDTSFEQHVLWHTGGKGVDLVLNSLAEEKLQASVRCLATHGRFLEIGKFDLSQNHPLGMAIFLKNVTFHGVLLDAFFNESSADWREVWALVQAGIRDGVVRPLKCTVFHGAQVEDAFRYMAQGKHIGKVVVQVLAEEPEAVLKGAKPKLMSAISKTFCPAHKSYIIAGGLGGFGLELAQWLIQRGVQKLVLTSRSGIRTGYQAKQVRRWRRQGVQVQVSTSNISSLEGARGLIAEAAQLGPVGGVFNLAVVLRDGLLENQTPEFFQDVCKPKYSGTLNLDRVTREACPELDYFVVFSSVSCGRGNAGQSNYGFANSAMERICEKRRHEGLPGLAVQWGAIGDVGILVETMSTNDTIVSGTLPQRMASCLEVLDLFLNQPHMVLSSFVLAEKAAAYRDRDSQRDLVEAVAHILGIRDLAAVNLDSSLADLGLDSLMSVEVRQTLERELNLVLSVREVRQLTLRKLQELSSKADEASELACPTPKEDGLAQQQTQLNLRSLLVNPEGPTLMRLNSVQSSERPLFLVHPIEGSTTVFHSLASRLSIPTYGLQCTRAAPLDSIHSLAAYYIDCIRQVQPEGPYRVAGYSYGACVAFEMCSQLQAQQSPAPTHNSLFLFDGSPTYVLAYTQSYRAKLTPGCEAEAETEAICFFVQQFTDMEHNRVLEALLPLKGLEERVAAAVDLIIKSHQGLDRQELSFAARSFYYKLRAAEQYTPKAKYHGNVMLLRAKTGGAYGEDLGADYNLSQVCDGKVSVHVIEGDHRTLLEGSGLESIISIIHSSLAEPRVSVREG
Sequence of Cytochrome P450 3A4 (P08684 whole entry): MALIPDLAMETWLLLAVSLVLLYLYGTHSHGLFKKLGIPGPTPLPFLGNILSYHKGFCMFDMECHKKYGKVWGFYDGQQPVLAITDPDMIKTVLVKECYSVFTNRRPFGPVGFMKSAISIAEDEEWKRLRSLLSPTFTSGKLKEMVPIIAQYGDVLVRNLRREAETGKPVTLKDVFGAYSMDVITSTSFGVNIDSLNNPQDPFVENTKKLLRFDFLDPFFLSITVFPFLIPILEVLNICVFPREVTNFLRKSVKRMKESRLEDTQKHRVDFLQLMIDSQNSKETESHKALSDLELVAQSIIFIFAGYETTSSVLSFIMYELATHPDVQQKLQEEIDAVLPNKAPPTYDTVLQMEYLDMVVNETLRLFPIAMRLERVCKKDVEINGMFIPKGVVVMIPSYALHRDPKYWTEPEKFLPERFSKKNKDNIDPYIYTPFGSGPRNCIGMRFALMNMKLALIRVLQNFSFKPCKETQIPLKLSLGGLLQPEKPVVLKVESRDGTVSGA

## CSCCC(NC(=O)c1ccc(Cl)c([N+](=O)[O-])c1)C(=O)N1CCN(C/C=C/c2ccccc2)CC1 (stereo not drawn)
Fatty acid synthase [1]
  IC50: 8.52 µM (active)
Fatty acid synthase [2]
  IC50: 6.62 µM (active)

## N#Cc1ccc(C23CC4(C2)[C@H](CN(CC2CCCCC2)[C@@H]4c2ccccc2)C3c2ccc(C(F)(F)F)cc2)cc1 (stereo partly drawn)
Cytochrome P450 3A4
  AC50: 15.8 µM (inconclusive)

## O=S(=O)(Cc1ccccc1)N1CCc2ccccc21
[3]
  EC50: > 160 µM (inactive)
[4]
  EC50: 1.56 µM (active)

## OC(COc1ccc2c(c1)OCO2)CN1CCCC1 (stereo not drawn)
[3]
  EC50: 53.2 µM (active)

## COc1cc(-n2c(=O)c3ccccc3n(Cc3cc(=O)n4ccccc4n3)c2=O)cc(OC)c1OC
H9c2
  IC50: 18.7 µM (active)

## COC(=O)[C@@H]1C[C@@]2(O)[C@H](O)[C@H](O)[C@H](O)C[C@H]2N1Cc1ccc(N2CCN(C)CC2)cc1
Cytochrome P450 3A4
  AC50: 31.6 µM (inconclusive)

## COC(=O)[C@@H]1C[C@H]2CC[C@H](O)C[C@H]2N1Cc1ccc(-c2ccccc2)cc1
Cytochrome P450 3A4
  AC50: 12.6 µM (inconclusive)

## N#C/C(=C\c1c(F)cccc1Cl)c1nn(-c2ccccc2)c(-n2cccc2)c1C#N
[5]
  CC50: > 50 µM (active)
Protein RecA
  EC50: 1.34 µM (inconclusive)
[6]
  AC50: 966 nM (active)
[7]
  AC50: 28.9 µM (active)

## CC(Nc1c[nH]c(=O)[nH]c1=O)c1ccccc1 (stereo not drawn)
Protein RecA
  EC50: 15.5 µM (active)
[7]
  AC50: 23.9 µM (active)

## CC(=O)O[C@@]1(C(C)=O)CCC2C3CC(C)C4=CC(=O)CC[C@@]4(C)C3CC[C@]21C (stereo partly drawn)
Cytochrome P450 3A4
  AC50: 39.8 µM (inconclusive)

## CCN(CC)CCCn1c(-c2ccccc2)nc2c(NCc3ccccc3)nc(C)nc21
Cytochrome P450 3A4
  AC50: 10 µM (inconclusive)

## Cc1ccc(OCC(=O)NCc2nnc(O)c3ccccc23)cc1
H9c2
  IC50: > 79 µM (inactive)

## COc1ccc(Cn2c(C)nc3ccc([N+](=O)[O-])cc3c2=O)cc1
Fatty acid synthase [1]
  IC50: 4.97 µM (active)
Fatty acid synthase [2]
  IC50: 3.61 µM (active)

## COc1ccc(C2NC(c3ccc(OC)cc3OC)C(C)C(=O)C2C)c(OC)c1 (stereo not drawn)
Protein RecA
  EC50: > 380 µM (inactive)
[8]
  IC50: 116 µM (active)
[7]
  AC50: > 380 µM (inactive)

## CC(=O)Nc1cc(-c2ccc(C(=O)N3CCOCC3)cc2)cn2c(-c3ccc(C(C)=O)cc3)cnc12
H9c2
  IC50: > 79 µM (inactive)

## NC(=O)c1ccc(NC(=O)COc2cccc3c2CCNC3=O)cc1
H9c2
  IC50: > 79 µM (inactive)

## CC1CC(C)CN(C(=O)COC(=O)c2cc([N+](=O)[O-])ccc2N2CCOCC2)C1 (stereo not drawn)
Fatty acid synthase [1]
  IC50: 1.3 µM (active)
Fatty acid synthase [2]
  IC50: 1.22 µM (active)

## c1ccc(Nc2ccc3ccccc3c2)cc1
Cytochrome P450 3A4
  AC50: 25.1 µM (inconclusive)

## O=[N+]([O-])c1ccc(N2CCOCC2)c2ccncc12
Protein RecA
  EC50: 12.2 µM (active)
[7]
  AC50: > 380 µM (inactive)

## O=C(COC(=O)Cc1nnc(O)c2ccccc12)NNC(=O)c1ccc(Br)cc1
H9c2
  IC50: > 79 µM (inactive)

## C[n+]1c(-c2ccccc2)cc(-c2ccc(Cl)cc2)cc1-c1ccccc1.[O-][Cl+3]([O-])([O-])[O-]
[3]
  EC50: > 160 µM (inconclusive)
[4]
  EC50: 0.756 µM (active)

## O=C(CNC(=O)c1[nH]cnc1C(=O)NCc1ccccc1)OCc1ccccc1
H9c2
  IC50: 40.4 µM (inactive)

## O=C(COC(=O)c1ccc(Cl)c([N+](=O)[O-])c1)NC1CCCC1
Fatty acid synthase [1]
  IC50: 3.12 µM (active)
Fatty acid synthase [2]
  IC50: 3.41 µM (active)

## Cc1csc(NC(=O)CCNC(=O)c2ccc([N+](=O)[O-])cc2)n1
Fatty acid synthase [1]
  IC50: 6.85 µM (active)
Fatty acid synthase [2]
  IC50: 7.66 µM (active)

## COc1ccc(C(=O)Nc2cccc(/C(C)=N/NC(=O)c3ccc([N+](=O)[O-])c(C)c3)c2)cc1OC
H9c2
  IC50: > 79 µM (inactive)

## COc1ccc([N+](=O)[O-])cc1C(=O)Nc1ccc(Cc2ccncc2)cc1
Fatty acid synthase [1]
  IC50: 10.9 µM (active)
Fatty acid synthase [2]
  IC50: 11.5 µM (active)

## COc1ccc(OC2C(O)COC2/C=C/C#Cc2ccccc2)cc1 (stereo not drawn)
Cytochrome P450 3A4
  AC50: 3.98 µM (inconclusive)

## CCN(CC)CCn1c2c(c(SCC(=O)Nc3cccc(C(C)=O)c3)nc1=O)CCCC2
H9c2
  IC50: > 79 µM (inactive)

## O=C(CSc1nc(O)c2ccccc2n1)N1CCCCCC1
H9c2
  IC50: 33 µM (inactive)

## CCCc1n[nH]c2c1C(c1ccc(OC(=O)N3CCOCC3)cc1)C(C#N)=C(N)O2 (stereo not drawn)
Protein RecA
  EC50: 11.8 µM (active)
[7]
  AC50: 23.5 µM (active)

## O=C1CCCC/C1=N\Nc1ccc(OCc2ccccc2)cc1
[3]
  EC50: > 160 µM (inconclusive)
[4]
  EC50: > 38 µM (not active)

## N#C/C(=C\c1ccc(-c2cccc([N+](=O)[O-])c2)o1)C(=O)NCCN1CCOCC1
H9c2
  IC50: > 79 µM (inactive)

## Cn1ncc(Cl)c1C(=O)NNC(=O)Nc1cccc2ccccc12
[3]
  EC50: > 160 µM (inactive)
[4]
  EC50: > 38 µM (not active)

## CC(=O)OCC(=O)[C@@]1(O)CCC2C3CC(C)C4=CC(=O)C=CC4(C)C3C(O)CC21C (stereo partly drawn)
Cytochrome P450 3A4
  AC50: 12.6 µM (inconclusive)

## COC(=O)c1ccc(CNC(=O)/C=C/c2cc([N+](=O)[O-])ccc2OC(F)F)cc1
Fatty acid synthase [1]
  IC50: 3.27 µM (active)
Fatty acid synthase [2]
  IC50: 4.91 µM (active)

## Cc1nc(N2CCOCC2)c2nc(-c3ccccc3)n(CC(C)(C)CN(C)C)c2n1
Cytochrome P450 3A4
  AC50: 10 µM (inconclusive)

## COc1ccc2[nH]cc(CC(N)C(=O)O)c2c1 (stereo not drawn)
Cytochrome P450 3A4
  AC50: 31.6 µM (inconclusive)

## CC(C)(C)c1ccc(CSc2ccc(S(=O)(=O)N3CCOCC3)cn2)cc1
Fatty acid synthase [1]
  IC50: 1.03 µM (active)
Fatty acid synthase [2]
  IC50: 0.683 µM (active)

## CN(C(=O)COC(=O)c1cc([N+](=O)[O-])ccc1N1CCOCC1)C1CCCCC1
Fatty acid synthase [1]
  IC50: 0.383 µM (active)
Fatty acid synthase [2]
  IC50: 0.41 µM (active)

## COc1ccc(/C=C/C(=O)c2ccccc2)cc1COc1ccc(F)cc1
Protein RecA
  EC50: 37.2 µM (active)
[7]
  AC50: 17.1 µM (active)

## O=C(CCCCCCCCCCCCC1CCCC1)Nc1ccc(S(=O)(=O)c2ccc(NC(=O)CCCCCCCCCCCCC3CCCC3)cc2)cc1 [CHAULMOSULFONE]
Cytochrome P450 3A4
  AC50: 31.6 µM (inconclusive)
